How the values were obtained:
[1] = for surface tension liquid-gas: Pendant drop shape; for mass density: Liquid, Vibrating tube method
[2] = xn = mol fraction of the nth substance listed; settings: for surface tension liquid-gas: Pendant drop shape; for mass density: 101 kPa, Liquid, Vibrating tube method

COCCOC [1,2-dimethoxyethane]
[1]
Settings | surface tension liquid-gas [mN/m]
298.15 K | 24.27
303.15 K | 23.73
308.15 K | 23.16

mass density [kg/m3], [1]
Settings | 298.15 K | 303.15 K | 308.15 K
101 kPa | – | 856.8 | –
101.33 kPa | 861.36 | 856.79 | 851.24

COCCOC [1,2-dimethoxyethane] + Cc1ccc(C)cc1
[2]
Settings | mass density [kg/m3] | surface tension liquid-gas [mN/m]
298.15 K, x1 = 0.1002 | 857.45 | 27.63
298.15 K, x1 = 0.2004 | 857.95 | 27.17
298.15 K, x1 = 0.2996 | 858.44 | 26.75
298.15 K, x1 = 0.4001 | 858.93 | 26.32
298.15 K, x1 = 0.5009 | 859.41 | 25.91
298.15 K, x1 = 0.5997 | 859.85 | 25.54
298.15 K, x1 = 0.7018 | 860.28 | 25.18
298.15 K, x1 = 0.8005 | 860.66 | 24.87
298.15 K, x1 = 0.8998 | 861.02 | 24.57
298.15 K, x1 = 1 | 861.36 | 24.27
303.15 K, x1 = 0.0999 | 853.1 | 27.12
303.15 K, x1 = 0.2007 | 853.58 | 26.67
303.15 K, x1 = 0.3002 | 854.06 | 26.24
303.15 K, x1 = 0.3999 | 854.52 | 25.82
303.15 K, x1 = 0.4999 | 854.97 | 25.41
303.15 K, x1 = 0.6001 | 855.4 | 25.03
303.15 K, x1 = 0.7011 | 855.81 | 24.68
303.15 K, x1 = 0.8003 | 856.19 | 24.37
303.15 K, x1 = 0.9003 | 856.52 | 24.05
303.15 K, x1 = 1 | 856.79 | 23.73
308.15 K, x1 = 0.0996 | 848.66 | 26.61
308.15 K, x1 = 0.1998 | 849.05 | 26.16
308.15 K, x1 = 0.2997 | 849.41 | 25.73
308.15 K, x1 = 0.4001 | 849.76 | 25.3
308.15 K, x1 = 0.4995 | 850.09 | 24.89
308.15 K, x1 = 0.6004 | 850.4 | 24.51
308.15 K, x1 = 0.6993 | 850.67 | 24.17
308.15 K, x1 = 0.7993 | 850.93 | 23.84
308.15 K, x1 = 0.8998 | 851.14 | 23.5
308.15 K, x1 = 1 | 851.24 | 23.16

COCCOC [1,2-dimethoxyethane] + Cc1ccccc1C
[2]
Settings | mass density [kg/m3] | surface tension liquid-gas [mN/m]
298.15 K, x1 = 0.0995 | 874.01 | 29.05
298.15 K, x1 = 0.1998 | 872.89 | 28.28
298.15 K, x1 = 0.3003 | 871.73 | 27.6
298.15 K, x1 = 0.4004 | 870.51 | 27.08
298.15 K, x1 = 0.4998 | 869.24 | 26.63
298.15 K, x1 = 0.6001 | 867.86 | 26.2
298.15 K, x1 = 0.7008 | 866.37 | 25.78
298.15 K, x1 = 0.7996 | 864.86 | 25.37
298.15 K, x1 = 0.8992 | 863.22 | 24.96
298.15 K, x1 = 0.95 | 862.34 | 24.64
298.15 K, x1 = 1 | 861.36 | 24.27
303.15 K, x1 = 0.0996 | 869.77 | 28.45
303.15 K, x1 = 0.1997 | 868.64 | 27.73
303.15 K, x1 = 0.3007 | 867.45 | 27.08
303.15 K, x1 = 0.3997 | 866.2 | 26.61
303.15 K, x1 = 0.5001 | 864.88 | 26.19
303.15 K, x1 = 0.6012 | 863.46 | 25.78
303.15 K, x1 = 0.7009 | 861.98 | 25.37
303.15 K, x1 = 0.7988 | 860.43 | 25
303.15 K, x1 = 0.8998 | 858.74 | 24.53
303.15 K, x1 = 0.9498 | 857.85 | 24.17
303.15 K, x1 = 1 | 856.8 | 23.73
308.15 K, x1 = 0.0998 | 865.45 | 27.92
308.15 K, x1 = 0.2005 | 864.2 | 27.23
308.15 K, x1 = 0.3003 | 862.9 | 26.61
308.15 K, x1 = 0.4009 | 861.51 | 26.17
308.15 K, x1 = 0.4991 | 860.07 | 25.77
308.15 K, x1 = 0.5995 | 858.53 | 25.39
308.15 K, x1 = 0.7013 | 856.88 | 24.99
308.15 K, x1 = 0.7991 | 855.2 | 24.58
308.15 K, x1 = 0.9008 | 853.35 | 24.07
308.15 K, x1 = 0.9503 | 852.39 | 23.66
308.15 K, x1 = 1 | 851.24 | 23.16

Cc1ccccc1C [1,2-dimethylbenzene]
[1]
Settings | surface tension liquid-gas [mN/m]
298.15 K | 29.86
303.15 K | 29.18
308.15 K | 28.61

[1], 101.33 kPa
Settings | mass density [kg/m3]
298.15 K | 875.09
303.15 K | 870.86
308.15 K | 866.64

Cc1ccccc1C [1,2-dimethylbenzene] + COCCOC
[2], x2 = 0
Settings | mass density [kg/m3] | surface tension liquid-gas [mN/m]
298.15 K | 875.09 | 29.86
303.15 K | 870.86 | 29.18
308.15 K | 866.64 | 28.61

Cc1ccc(C)cc1 [1,4-dimethylbenzene]
[1]
Settings | surface tension liquid-gas [mN/m]
298.15 K | 28.11
303.15 K | 27.59
308.15 K | 27.07

[1], 101.33 kPa
Settings | mass density [kg/m3]
298.15 K | 856.95
303.15 K | 852.61
308.15 K | 848.27

Cc1ccc(C)cc1 [1,4-dimethylbenzene] + COCCOC
[2], x2 = 0
Settings | mass density [kg/m3] | surface tension liquid-gas [mN/m]
298.15 K | 856.95 | 28.11
303.15 K | 852.61 | 27.59
308.15 K | 848.27 | 27.07
